Assays:
[1] = biological target: T1, Cysteinyl leukotriene receptor 1 (Homo sapiens) (UniProt Q9Y271); test: Inhibition of leukotriene D4 at 100 nM
T1 sequence (whole entry): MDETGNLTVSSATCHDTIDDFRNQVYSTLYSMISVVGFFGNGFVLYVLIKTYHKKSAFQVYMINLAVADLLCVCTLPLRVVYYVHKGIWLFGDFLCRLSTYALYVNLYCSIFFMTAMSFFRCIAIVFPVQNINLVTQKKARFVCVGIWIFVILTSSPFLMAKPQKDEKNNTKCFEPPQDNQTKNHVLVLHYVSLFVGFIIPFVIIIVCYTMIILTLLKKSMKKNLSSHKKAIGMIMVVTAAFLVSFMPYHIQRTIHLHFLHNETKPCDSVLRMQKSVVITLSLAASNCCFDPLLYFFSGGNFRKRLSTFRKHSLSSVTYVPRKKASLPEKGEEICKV

[2] = Inhibitory activity at site 2 of sodium channel at 100 nM
[3] = biological target: T2, Type-1 angiotensin II receptor (Homo sapiens) (UniProt P30556); test: Inhibition of type 1 angiotensin 2 receptor at 1 nM
T2 sequence (whole entry): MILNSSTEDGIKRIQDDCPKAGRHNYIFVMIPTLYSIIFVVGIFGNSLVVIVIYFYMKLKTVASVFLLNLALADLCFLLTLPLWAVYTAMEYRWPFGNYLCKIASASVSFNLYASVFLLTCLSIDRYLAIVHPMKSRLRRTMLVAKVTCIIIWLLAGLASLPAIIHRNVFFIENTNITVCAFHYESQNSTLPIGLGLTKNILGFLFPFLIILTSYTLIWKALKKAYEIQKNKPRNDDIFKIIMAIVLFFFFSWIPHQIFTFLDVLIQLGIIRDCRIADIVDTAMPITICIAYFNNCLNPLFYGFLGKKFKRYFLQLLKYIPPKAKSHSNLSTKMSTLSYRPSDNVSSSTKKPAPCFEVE

[4] = species on record: Homo sapiens; test: Inhibition of inositol triphosphate IP3 at 100 nM; type: functional
[5] = biological target: 5-hydroxytryptamine receptor 2A (Rattus norvegicus) (UniProt P14842); test: (§1) Activity against 5HT2A mediated intracellular calcium mobilization by FLIPR in rat vascular smooth muscle cells; type: functional, cell-based
[6] = biological target: 5-hydroxytryptamine receptor 2A (Rattus norvegicus, UniProt P14842); test: as §1; type: functional, cell-based
[7] = Half life in phosphate buffer at pH 7.4 in 25 degC; type: ADME
[8] = biological target: T3, Leukotriene B4 receptor (Homo sapiens) (UniProt Q9NPC1+Q15722); test: Inhibition of leukotriene B4 at 100 nM; type: protein assay
[9] = biological target: GABA-A receptor; agonist GABA site (Homo sapiens) (UniProt P14867+P47870+P28472+P48169+P34903+P18505+P47869+P31644+Q16445); test: Inhibition of agonist site of GABAA receptor at 1 nM; type: functional
[10] = biological target: T4, Estrogen receptor (Homo sapiens) (UniProt Q92731+P03372); test: Inhibition of estrogen receptor at 1 nM; type: protein assay
[11] = biological target: Sigma non-opioid intracellular receptor 1 (Homo sapiens) (UniProt Q99720); test: Inhibition of non selective binding to sigma receptor at 10 uM
[12] = biological target: Alpha-1A adrenergic receptor (Homo sapiens, UniProt P35348); test: Inhibitory activity against adrenergic alpha-1A receptor
[13] = biological target: Opioid receptors; mu/kappa/delta (Homo sapiens) (UniProt P41145+P41143+P35372); test: Inhibition of non selective binding to opiate receptor at 1 nM; type: protein assay
[14] = biological target: T3, Leukotriene B4 receptor (Homo sapiens); test: Inhibition of leukotriene B4 at 1 nM; type: protein assay
[15] = system: MDR1 (P-gp); test: Permeability from basolateral to apical side of the MDCK cell transfected with human MDR1; type: ADME, cell-based
[16] = Inhibitory activity at calcium activated potassium channel 6 at 1 nM
[17] = biological target: Voltage-dependent N-type calcium channel subunit alpha-1B (Homo sapiens) (UniProt Q00975); test: Inhibitory activity at Calcium channel N type at 100 nM
[18] = biological target: Adenosine receptor (Homo sapiens) (UniProt P30542+P29275+P0DMS8+P29274); test: Inhibition of non selective binding to adenosine receptor at 100 nM; type: protein assay
[19] = biological target: T5, Alpha-2A adrenergic receptor (Homo sapiens, UniProt P08913); test: Activity at adrenergic alpha2A receptor expressed in human clonic adenocarcinoma HT29 cell by […]; type: functional, cell-based, HT-29
T5 sequence (P08913 whole entry): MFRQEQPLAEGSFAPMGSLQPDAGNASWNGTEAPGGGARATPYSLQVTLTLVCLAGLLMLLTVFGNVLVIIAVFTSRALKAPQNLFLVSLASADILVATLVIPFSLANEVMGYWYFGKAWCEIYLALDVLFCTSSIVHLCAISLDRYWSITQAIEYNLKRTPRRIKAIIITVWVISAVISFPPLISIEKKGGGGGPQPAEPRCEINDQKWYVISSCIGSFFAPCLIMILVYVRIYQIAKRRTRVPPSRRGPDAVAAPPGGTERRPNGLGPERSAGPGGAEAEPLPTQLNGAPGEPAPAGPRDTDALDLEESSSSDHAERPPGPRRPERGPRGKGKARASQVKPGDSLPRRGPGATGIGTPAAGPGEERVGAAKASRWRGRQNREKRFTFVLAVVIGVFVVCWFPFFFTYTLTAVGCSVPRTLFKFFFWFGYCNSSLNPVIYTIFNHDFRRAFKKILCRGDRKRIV

[20] = biological target: Epidermal growth factor receptor (Homo sapiens) (UniProt P00533); test: Inhibition of EGFR at 10 uM
[21] = biological target: Glutamate receptor ionotropic AMPA (Homo sapiens) (UniProt P48058+P42263+P42262+P42261); test: Inhibition of AMPA receptor at 10 uM; type: protein-complex assay
[22] = biological target: T6, Alpha-2C adrenergic receptor (Homo sapiens, UniProt P18825); test: Displacement of [3H]clonidine from cloned human adrenergic Alpha-2C receptor expressed in Sf9 cells
T6 sequence (P18825 whole entry): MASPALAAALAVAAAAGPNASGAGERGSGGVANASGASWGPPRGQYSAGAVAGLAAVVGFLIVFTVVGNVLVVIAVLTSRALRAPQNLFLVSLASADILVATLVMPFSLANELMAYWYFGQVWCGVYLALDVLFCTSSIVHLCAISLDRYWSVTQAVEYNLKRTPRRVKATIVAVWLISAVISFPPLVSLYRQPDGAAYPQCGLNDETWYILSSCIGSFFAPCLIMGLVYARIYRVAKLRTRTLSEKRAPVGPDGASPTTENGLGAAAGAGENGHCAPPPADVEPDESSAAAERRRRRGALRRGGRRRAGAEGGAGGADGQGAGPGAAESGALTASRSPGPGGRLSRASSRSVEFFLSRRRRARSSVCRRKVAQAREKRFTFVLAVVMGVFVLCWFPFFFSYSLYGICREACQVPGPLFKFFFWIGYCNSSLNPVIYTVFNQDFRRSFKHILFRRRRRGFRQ

[23] = biological target: T4, Estrogen receptor (Homo sapiens); test: Inhibition of estrogen receptor at 10 uM; type: protein assay

T3 sequence (Q15722 whole entry, looked up): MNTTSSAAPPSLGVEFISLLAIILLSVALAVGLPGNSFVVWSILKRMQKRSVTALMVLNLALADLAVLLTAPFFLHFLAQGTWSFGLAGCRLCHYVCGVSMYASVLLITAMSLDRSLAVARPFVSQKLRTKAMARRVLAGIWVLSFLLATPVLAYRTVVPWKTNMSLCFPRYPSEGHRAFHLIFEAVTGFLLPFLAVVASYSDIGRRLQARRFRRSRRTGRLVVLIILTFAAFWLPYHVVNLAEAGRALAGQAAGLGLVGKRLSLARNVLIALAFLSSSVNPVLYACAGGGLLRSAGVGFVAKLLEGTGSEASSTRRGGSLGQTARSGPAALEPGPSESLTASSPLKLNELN
T3 sequence (Q9NPC1 whole entry, looked up): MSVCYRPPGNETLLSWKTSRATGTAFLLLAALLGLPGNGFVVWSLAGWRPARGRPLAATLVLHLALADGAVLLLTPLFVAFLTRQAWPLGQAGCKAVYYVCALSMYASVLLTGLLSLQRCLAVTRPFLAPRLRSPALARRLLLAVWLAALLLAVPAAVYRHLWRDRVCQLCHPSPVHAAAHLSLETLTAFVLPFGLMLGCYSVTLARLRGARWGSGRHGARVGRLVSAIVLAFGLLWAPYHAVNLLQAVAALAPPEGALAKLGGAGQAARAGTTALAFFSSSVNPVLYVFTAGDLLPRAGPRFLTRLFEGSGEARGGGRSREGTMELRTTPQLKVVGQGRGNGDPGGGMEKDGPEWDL
Voltage-dependent N-type calcium channel subunit alpha-1B (Homo sapiens), sequence (Q00975 whole entry, looked up): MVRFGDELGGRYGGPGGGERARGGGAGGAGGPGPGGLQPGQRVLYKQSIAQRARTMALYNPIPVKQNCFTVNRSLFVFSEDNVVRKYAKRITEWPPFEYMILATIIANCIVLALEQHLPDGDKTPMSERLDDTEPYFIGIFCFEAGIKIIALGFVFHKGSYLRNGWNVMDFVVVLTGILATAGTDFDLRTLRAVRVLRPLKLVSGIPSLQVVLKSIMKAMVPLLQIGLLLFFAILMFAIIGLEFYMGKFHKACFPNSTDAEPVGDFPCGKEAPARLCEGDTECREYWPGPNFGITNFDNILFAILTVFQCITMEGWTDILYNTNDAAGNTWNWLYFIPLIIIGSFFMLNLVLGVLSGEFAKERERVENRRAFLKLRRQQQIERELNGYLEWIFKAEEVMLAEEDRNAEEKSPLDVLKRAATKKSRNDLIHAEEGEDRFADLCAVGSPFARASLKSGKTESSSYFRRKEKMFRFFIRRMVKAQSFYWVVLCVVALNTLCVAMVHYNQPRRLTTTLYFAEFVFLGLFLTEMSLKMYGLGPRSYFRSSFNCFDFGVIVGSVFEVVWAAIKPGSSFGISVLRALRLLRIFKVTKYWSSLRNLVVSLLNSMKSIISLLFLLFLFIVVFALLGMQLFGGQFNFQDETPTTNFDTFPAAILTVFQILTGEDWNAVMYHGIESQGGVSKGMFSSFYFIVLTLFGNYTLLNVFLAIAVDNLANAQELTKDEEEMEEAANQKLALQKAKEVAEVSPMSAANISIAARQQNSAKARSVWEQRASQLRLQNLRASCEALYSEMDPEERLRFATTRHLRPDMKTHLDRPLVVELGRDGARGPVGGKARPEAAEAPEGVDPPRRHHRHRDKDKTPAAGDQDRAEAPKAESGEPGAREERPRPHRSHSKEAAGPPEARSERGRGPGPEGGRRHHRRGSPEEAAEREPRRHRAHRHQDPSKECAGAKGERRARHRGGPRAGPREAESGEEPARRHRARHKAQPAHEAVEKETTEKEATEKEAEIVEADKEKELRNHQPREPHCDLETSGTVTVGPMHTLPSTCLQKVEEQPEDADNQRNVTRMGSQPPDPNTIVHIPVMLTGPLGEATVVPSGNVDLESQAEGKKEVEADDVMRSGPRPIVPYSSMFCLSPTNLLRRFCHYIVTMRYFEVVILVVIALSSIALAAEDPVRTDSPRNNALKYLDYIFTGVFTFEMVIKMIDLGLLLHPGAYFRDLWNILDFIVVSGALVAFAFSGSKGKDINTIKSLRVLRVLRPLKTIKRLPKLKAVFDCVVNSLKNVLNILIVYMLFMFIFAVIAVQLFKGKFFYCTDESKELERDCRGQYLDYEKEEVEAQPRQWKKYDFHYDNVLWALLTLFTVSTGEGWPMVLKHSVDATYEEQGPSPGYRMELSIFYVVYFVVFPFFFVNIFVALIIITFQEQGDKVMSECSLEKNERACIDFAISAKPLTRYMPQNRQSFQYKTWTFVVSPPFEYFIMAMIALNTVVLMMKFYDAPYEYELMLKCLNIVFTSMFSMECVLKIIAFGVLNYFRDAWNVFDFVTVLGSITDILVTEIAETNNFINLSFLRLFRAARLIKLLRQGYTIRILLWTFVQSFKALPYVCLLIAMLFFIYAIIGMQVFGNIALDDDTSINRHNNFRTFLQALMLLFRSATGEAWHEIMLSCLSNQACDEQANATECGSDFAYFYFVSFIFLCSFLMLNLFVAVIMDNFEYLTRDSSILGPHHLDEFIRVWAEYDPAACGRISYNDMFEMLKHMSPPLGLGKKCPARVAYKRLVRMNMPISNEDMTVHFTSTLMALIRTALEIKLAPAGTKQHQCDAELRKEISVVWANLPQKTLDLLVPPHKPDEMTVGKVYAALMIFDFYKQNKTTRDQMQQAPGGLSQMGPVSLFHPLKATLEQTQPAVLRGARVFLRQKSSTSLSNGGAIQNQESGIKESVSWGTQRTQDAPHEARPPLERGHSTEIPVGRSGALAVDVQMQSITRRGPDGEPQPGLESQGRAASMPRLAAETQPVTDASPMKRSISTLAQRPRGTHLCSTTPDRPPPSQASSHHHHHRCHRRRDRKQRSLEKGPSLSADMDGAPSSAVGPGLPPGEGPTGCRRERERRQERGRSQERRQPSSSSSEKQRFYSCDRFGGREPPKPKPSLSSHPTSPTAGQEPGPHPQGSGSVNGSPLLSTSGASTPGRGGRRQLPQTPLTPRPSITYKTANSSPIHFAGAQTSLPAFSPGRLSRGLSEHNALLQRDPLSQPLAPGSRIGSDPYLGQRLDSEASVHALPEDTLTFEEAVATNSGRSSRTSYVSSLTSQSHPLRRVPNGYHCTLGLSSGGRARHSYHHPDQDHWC
Sigma non-opioid intracellular receptor 1 (Homo sapiens), sequence (Q99720 whole entry): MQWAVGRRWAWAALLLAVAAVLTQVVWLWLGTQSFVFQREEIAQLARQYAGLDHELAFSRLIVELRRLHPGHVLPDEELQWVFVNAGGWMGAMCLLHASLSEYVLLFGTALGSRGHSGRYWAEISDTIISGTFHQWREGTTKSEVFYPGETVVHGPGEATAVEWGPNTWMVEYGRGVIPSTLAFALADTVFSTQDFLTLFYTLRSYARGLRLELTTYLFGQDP
Epidermal growth factor receptor (Homo sapiens), sequence (P00533 whole entry): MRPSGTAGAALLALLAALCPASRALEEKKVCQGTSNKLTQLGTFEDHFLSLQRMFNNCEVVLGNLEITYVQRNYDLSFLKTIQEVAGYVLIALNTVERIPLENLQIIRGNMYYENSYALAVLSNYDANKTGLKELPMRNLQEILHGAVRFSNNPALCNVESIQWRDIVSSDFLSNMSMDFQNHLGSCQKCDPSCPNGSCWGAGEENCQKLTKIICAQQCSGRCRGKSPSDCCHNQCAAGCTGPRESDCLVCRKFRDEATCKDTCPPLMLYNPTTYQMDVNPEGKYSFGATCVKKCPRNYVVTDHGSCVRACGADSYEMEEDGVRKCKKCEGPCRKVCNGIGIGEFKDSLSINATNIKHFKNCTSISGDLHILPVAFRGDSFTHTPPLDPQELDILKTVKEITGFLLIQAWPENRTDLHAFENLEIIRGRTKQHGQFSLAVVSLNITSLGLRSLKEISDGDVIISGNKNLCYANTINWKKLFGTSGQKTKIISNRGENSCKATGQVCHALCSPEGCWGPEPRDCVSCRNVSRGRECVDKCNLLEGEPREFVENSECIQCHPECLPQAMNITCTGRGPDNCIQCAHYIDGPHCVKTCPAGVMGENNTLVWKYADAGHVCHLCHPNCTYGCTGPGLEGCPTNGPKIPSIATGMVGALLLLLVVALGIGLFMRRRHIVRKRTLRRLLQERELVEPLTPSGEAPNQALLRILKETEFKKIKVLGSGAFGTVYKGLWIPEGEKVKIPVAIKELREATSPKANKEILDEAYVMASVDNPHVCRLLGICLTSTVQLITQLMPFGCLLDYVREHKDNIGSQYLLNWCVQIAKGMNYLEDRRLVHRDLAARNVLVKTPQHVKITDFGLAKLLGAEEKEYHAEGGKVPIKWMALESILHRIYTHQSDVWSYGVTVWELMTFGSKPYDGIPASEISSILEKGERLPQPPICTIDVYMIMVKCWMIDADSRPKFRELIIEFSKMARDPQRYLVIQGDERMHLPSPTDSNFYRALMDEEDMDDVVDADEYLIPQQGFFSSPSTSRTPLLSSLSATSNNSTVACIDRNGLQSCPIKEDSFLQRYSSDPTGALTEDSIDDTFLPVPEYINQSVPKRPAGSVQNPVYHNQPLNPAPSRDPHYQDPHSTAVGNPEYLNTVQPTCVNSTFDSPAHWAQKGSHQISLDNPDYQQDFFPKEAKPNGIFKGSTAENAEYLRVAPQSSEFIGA
5-hydroxytryptamine receptor 2A, sequence (P14842 whole entry): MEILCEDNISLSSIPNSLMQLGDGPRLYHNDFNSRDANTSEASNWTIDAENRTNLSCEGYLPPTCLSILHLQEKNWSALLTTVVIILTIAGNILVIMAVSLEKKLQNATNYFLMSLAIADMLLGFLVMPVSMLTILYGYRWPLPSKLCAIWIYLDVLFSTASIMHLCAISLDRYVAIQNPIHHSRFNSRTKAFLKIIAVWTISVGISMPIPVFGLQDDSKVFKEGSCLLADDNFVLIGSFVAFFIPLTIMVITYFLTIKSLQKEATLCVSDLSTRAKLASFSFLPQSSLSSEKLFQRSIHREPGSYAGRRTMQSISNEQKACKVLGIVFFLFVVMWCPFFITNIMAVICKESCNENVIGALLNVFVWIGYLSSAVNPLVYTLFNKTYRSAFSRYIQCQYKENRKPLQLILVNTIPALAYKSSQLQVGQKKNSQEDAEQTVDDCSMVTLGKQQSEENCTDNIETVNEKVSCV
5-hydroxytryptamine receptor 2A (Rattus norvegicus), sequence (P14842 whole entry): as above

C[C@H](N)Cn1ncc2ccc(O)cc21
inhibition [1]: 7.43% | inhibition [2]: 5.17% | inhibition [3]: 5.26% | inhibition [4]: 8.56% | Emax [5]: 81% | EC50 [6]: 42.7 nM | T1/2 [7]: 4.6 yr | inhibition [8]: 15.8% | inhibition [9]: 15.2% | inhibition [10]: 10.8% | inhibition [11]: -7.73% | Ki [12]: > 30000 nM | inhibition [13]: -6.1% | inhibition [14]: 0.44% | Papp B→A [15]: 0.88 ×10⁻⁶ cm/s | inhibition [16]: 10.4% | inhibition [17]: 2.01% | inhibition [18]: 13.6% | EC50 [19]: 2600 nM | inhibition [20]: -5.17% | inhibition [21]: 7.62% | Ki [22]: 4700 nM | inhibition [23]: 17.7%

From ChEMBL document CHEMBL1148572, “1-((S)-2-aminopropyl)-1H-indazol-6-ol: a potent peripherally acting 5-HT2 receptor agonist with ocular hypotensive activity” (J Med Chem, 2006)
